From BindingDB's records for doi:10.1021/jm4013906 (Bristol-Myers Squibb, 2013)

experiment: Antagonist activity at P2Y1 receptor in platelet-enriched human plasma assessed as 10 uM ADP-induced platelet aggregation preincubated for 1 min followed by ADP induction measured at 5 mins by aggregometric analysis

Question: For `CC(C)(C)CN1CCC2(CC1)CN(c1ccccc1NC(=O)Nc1ccc(OC(F)(F)F)cc1)c1ccncc12`, which IC50 is on record?
Answer: The IC50 was over 40 µM.

Question: For `CC(C)(C)CN1CCC2(CC1)CN(c1ccccc1NC(=O)Nc1ccc(OC(F)(F)F)cc1)c1ncccc12`, which IC50 is on record?
Answer: Its IC50 is over 40 µM.

Question: With `CC(C)N1CCC2(CC1)CN(c1ccccc1NC(=O)Nc1ccc(OC(F)(F)F)cc1)c1ccccc12` as the compound, how does the IC50 read?
Answer: Its IC50 is 29.2 µM.

Question: With `CC(C)CN1CCC2(CC1)CN(c1ccccc1NC(=O)Nc1ccc(OC(F)(F)F)cc1)c1ccccc12` as the compound, how does the IC50 read?
Answer: Its IC50 is 8.8 µM.

Question: For `O=C(Nc1ccc(OC(F)(F)F)cc1)Nc1ccccc1N1CC2(CCN(Cc3ccccc3)CC2)c2ccccc21`, which IC50 is on record?
Answer: Its IC50 is 18.6 µM.

Question: For `CC(C)(C)CN1CCC2(C1)CN(c1ccccc1NC(=O)Nc1ccc(OC(F)(F)F)cc1)c1ccccc12` (stereo not drawn), which IC50 is on record?
Answer: Its IC50 is 18.5 µM.

Question: Which IC50 does the source give for `CC(C)(C)CN1CCC2(CC1)CN(c1ccccc1NC(=O)Nc1ccc(OC(F)(F)F)cc1)c1cccnc12` here?
Answer: The IC50 was 15.1 µM.

Question: Which IC50 does the source give for `COC(=O)N1CCC2(CC1)CN(c1ccccc1NC(=O)Nc1ccc(OC(F)(F)F)cc1)c1ccccc12` here?
Answer: Its IC50 is 54.2 µM.

Question: Which IC50 does the source give for `CC(C)(C)CN1CCCC2(C1)CN(c1ccccc1NC(=O)Nc1ccc(OC(F)(F)F)cc1)c1ccccc12` (stereo not drawn) here?
Answer: The IC50 was over 40 µM.

Question: For `CC(C)(C)CN1CCC2(CC1)CN(c1ccccc1NC(=O)Nc1ccc(OC(F)(F)F)cc1)c1cnccc12`, which IC50 is on record?
Answer: The IC50 was 4 µM.

Question: Which IC50 does the source give for `CC(C)(C)CN1CCC2(CC1)CCN(c1ccccc1NC(=O)Nc1ccc(OC(F)(F)F)cc1)c1ccccc12` here?
Answer: Its IC50 is 6.3 µM.

Question: For `CC(C)(C)CN1CCC2(CC1)CN(c1ccccc1NC(=O)Nc1ccc(OC(F)(F)F)cc1)c1ccccc12`, which IC50 is on record?
Answer: The IC50 was 4.9 µM.

experiment: Antagonist activity at P2Y1 receptor in platelet-enriched human plasma assessed as 2.5 uM ADP-induced platelet aggregation preincubated for 1 min followed by ADP induction measured at 5 mins by aggregometric analysis

Question: With `COCCN1CCC2(CC1)CN(c1ccccc1NC(=O)Nc1ccc(OC(F)(F)F)cc1)c1ccccc12` as the compound, how does the IC50 read?
Answer: The IC50 was 25.4 µM.

Question: With `CC(C)N1CCC2(CC1)CN(c1ccccc1NC(=O)Nc1ccc(OC(F)(F)F)cc1)c1ccccc12` as the compound, how does the IC50 read?
Answer: The IC50 was 4.7 µM.

Question: Which IC50 does the source give for `CC(C)NC(=O)N1CCC2(CC1)CN(c1ccccc1NC(=O)Nc1ccc(OC(F)(F)F)cc1)c1ccccc12` here?
Answer: The IC50 was over 10 µM.

Question: For `CN1CCN(c2ccccc2NC(=O)Nc2ccc(OC(F)(F)F)cc2)c2ccccc21`, which IC50 is on record?
Answer: Its IC50 is over 10 µM.

Question: Which IC50 does the source give for `CC(C)CN1CCC2(CC1)CN(c1ccccc1NC(=O)Nc1ccc(OC(F)(F)F)cc1)c1ccccc12` here?
Answer: The IC50 was 2.2 µM.

Question: For `CC1(C)CN(c2ncccc2NC(=O)Nc2ccc(OC(F)(F)F)cc2)c2ccccc21`, which IC50 is on record?
Answer: The IC50 was over 10 µM.

Question: Which IC50 does the source give for `O=C(Nc1ccc(OC(F)(F)F)cc1)Nc1ccccc1N1CC2(CCN(Cc3ccccc3)CC2)c2ccccc21` here?
Answer: The IC50 was 3.3 µM.

Question: With `CC1(C)CCN(c2ncccc2NC(=O)Nc2ccc(OC(F)(F)F)cc2)c2ccccc21` as the compound, how does the IC50 read?
Answer: The IC50 was 11.1 µM.

Question: Which IC50 does the source give for `COC(=O)N1CCC2(CC1)CN(c1ccccc1NC(=O)Nc1ccc(OC(F)(F)F)cc1)c1ccccc12` here?
Answer: Its IC50 is 5.8 µM.

Question: Which IC50 does the source give for `O=C(Nc1ccc(OC(F)(F)F)cc1)Nc1ccccc1N1CC2(CCC2)c2ccccc21` here?
Answer: Its IC50 is 4.1 µM.

Question: Which IC50 does the source give for `CC1(C)CN(c2ccccc2NC(=O)Nc2ccc(OC(F)(F)F)cc2)c2ccccc21` here?
Answer: The IC50 was 8.5 µM.

Question: With `CC1(C)CCN(c2ccccc2NC(=O)Nc2ccc(OC(F)(F)F)cc2)c2ccccc21` as the compound, how does the IC50 read?
Answer: The IC50 was 2.2 µM.

Question: For `O=C(Nc1ccc(OC(F)(F)F)cc1)Nc1ccccc1N1CC2(CCCC2)c2ccccc21`, which IC50 is on record?
Answer: The IC50 was 2.4 µM.

Question: Which IC50 does the source give for `O=C(Nc1ccc(OC(F)(F)F)cc1)Nc1ccccc1N1CC2(CCN(C(=O)OCc3ccccc3)CC2)c2ccccc21` here?
Answer: Its IC50 is over 10 µM.

Question: With `O=C(Nc1ccc(OC(F)(F)F)cc1)Nc1ccccc1N1CC2(CCCCC2)c2ccccc21` as the compound, how does the IC50 read?
Answer: The IC50 was 2 µM.

Question: With `CC(C)(C)CN1CCC2(CC1)CN(c1ccccc1NC(=O)Nc1ccc(OC(F)(F)F)cc1)c1ccccc12` as the compound, how does the IC50 read?
Answer: The IC50 was 0.67 µM.

Question: With `O=C(Nc1ccc(OC(F)(F)F)cc1)Nc1ccccc1N1CC2(CC2)c2ccccc21` as the compound, how does the IC50 read?
Answer: The IC50 was over 10 µM.

Question: With `CC1(C)CN(c2ccccc2NC(=O)Nc2ccc(OC(F)(F)F)cc2)c2ccccc2O1` as the compound, how does the IC50 read?
Answer: The IC50 was over 10 µM.

Question: With `O=C(Nc1ccc(OC(F)(F)F)cc1)Nc1ccccc1N1CCOc2ccccc21` as the compound, how does the IC50 read?
Answer: The IC50 was over 10 µM.

Question: With `CC1CCN(c2ccccc2NC(=O)Nc2ccc(OC(F)(F)F)cc2)c2ccccc21` (stereo not drawn) as the compound, how does the IC50 read?
Answer: The IC50 was over 10 µM.

Question: With `O=C(Nc1ccc(OC(F)(F)F)cc1)Nc1ccccc1N1CCCc2ccccc21` as the compound, how does the IC50 read?
Answer: Its IC50 is over 10 µM.
